Assay results: patent US20180011102A1, “THE PROTEIN KINASE ACTIVITY OF PHOSPHOGLYCERATE KINASE 1 AS A TARGET FOR CANCER TREATMENT AND DIAGNOSIS” (Board of Regents, The University of Texas System, priority 2015, published 2018)
“Also recorded” adds a separate entry of the source.

Assays:
histone H3 at Ser10 = assay: Western blot of EGF-induced histone H3 S10 phosphorylation; assay type: cell-based, human; details: U87 cells expressing PGK1 shRNA, EGF stimulation
PDH complex = details: isolated mitochondria of U87 cells with PGK1 shRNA, hypoxia 6 h
Protocol: U87 cells with or without PGK1 shRNA and with or without reconstituted expression of WT rPGK1 or rPGK1 S203A were stimulated with or without hypoxia for 6 h. Mitochondrial fractions of the cells were prepared and activity of PDH complex-mediated conversion of ^14C-labeled pyruvate into ^14C-labeled CO2 was measured. Data represent the means±SD of three independent experiments. *p<0.01.
The [1-^14C]-pyruvate conversion assay was performed as previously described (Pezzato et al., 2009) with minor modification. Briefly, ^14CO2 production through the PDH complex was measured using isolated mitochondria (1 mg) in the 1 ml mitochondria resuspension buffer (200 mM sucrose, 10 mM Hepes [pH 7.4], 5 mM malate, 2 mM monosodium phosphate, 2 mM ADP, 1 mM EGTA) containing [1-^14C]-pyruvate (0.1 μCi/ml). The incubation mixture in a 2-ml Eppendorf tube was placed at the bottom of a 20-ml scintillation vial with a foil-lined screw cap and maintained in agitation. The ^14CO2 produced during incubation was trapped by 1 ml of hyamine hydroxide at the bottom of the scintillation vial. […] Then, 19 ml of scintillator liquid was added to each scintillation vial and radioactivity was measured on a scintillation counter. The results were normalized based on mitochondrial protein levels measured by Bradford assay using bovine serum albumin as the standard.

PDHK1 T338 = assay: Immunoblotting of hypoxia-induced PDHK1 T338 phosphorylation; assay type: cell-based, human; details: U87 and U251 cells with PGK1 shRNA, hypoxia 6 h
Protocol: FIGS. 14A-P. Mitochondrial PGK1 Phosphorylates PDHK1 at T338. FIG. 14A. […] Immunoblotting analyses were performed with the indicated antibodies. FIG. 14B. U87 cells (left panel) or U87/EGFR (right panel) cells expressing PGK1 shRNA with or without reconstituted expression of WT rPGK1 and the indicated mutants were stimulated with or without hypoxia for 6 h (left panel) or EGF (100 ng/ml) (right panel) for 6 h. These cells were incubated with [1-^14C]-pyruvate for 2 h. [1-^14C]CO2 production rates were measured. FIG. 14C. U87 cells expressing SFB-PDHK1, SFB-PDHK2, SFB-PDHK3, or SFB-PDHK4 were stimulated with or without hypoxia for 6 h. Mitochondrial fractions of these cells were prepared. SFB pull-down analyses with streptavidin-conjugated beads were performed. Immunoblotting analyses were performed with the indicated antibodies. FIG. 14D. […] Phospho-amino acid analysis of gel-isolated ^32P-phosphorylated SUMO-PDHK1 was performed. […] On the autoradiogram in the right hand panel, the green circle indicates pSer; the red circle indicates pThr; and the black circle indicates pTyr. FIG. 14E. […] FIG. 14F. […] ATP concentrations in mitoplast isolated from U87 or U251 cells treated with or without hypoxia for 6 h were measured. […] The glycolytic activities of bacterially purified WT PGK1, PGK1 T378P, PGK1 S203A, and PGK1 R39/K41A were measured. […]

PDH = assay: Immunoblotting of hypoxia-induced PDH phosphorylation; assay type: cell-based, human; details: U87 and U251 cells expressing PGK1 shRNA, hypoxia 6 h
Protocol: FIGS. 5A-E. PDHK1 Phosphorylation by PGK1 Activates PDHK1. Immunoblotting analyses were performed with the indicated antibodies. FIG. 5A. Bacterially purified His-PDH with purified WT PDHK1 or PDHK1 T338A was mixed with purified WT PGK1 or PGK1 T378P. In vitro phosphorylation analyses were performed. FIG. 5B. […] FIG. 5C. U87 and U251 cells expressing PDHK1 shRNA with or without reconstituted expression of WT rPDHK1 or rPDHK1 T338A were stimulated with or without hypoxia for 6 h. FIG. 5D. […] FIG. 5E.

PGK1 shRNA: pGIPZ PGK1 shRNA generated with GGATGTCTATGTCAATGATGC (SEQ ID NO: 4)
EGF-induced phosphorylation of histone H3 at Ser10 (histone H3 at Ser10): blocked; also recorded: greatly diminished | hypoxia-induced suppression of conversion of pyruvate to CO2 (PDH complex): significantly counteracted | hypoxia-induced PDHK1 T338 phosphorylation (PDHK1 T338): blocked | hypoxia-induced PDH phosphorylation (PDH): blocked
